Assay results taken from US20230219904A1 (SYNGENTA CROP PROTECTION AG, priority 2020, published 2023).

Assays:
Format in all cases: in vivo
Settings in all cases: evaluated after 13 days
[1] = system: Echinochloa crus-galh (ECHCG); test: Pre-emergence herbicidal glasshouse test (Table B1)
Outline: (§1)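 Five-point damage scores (1=0-19% through 5=80-100%) were recorded 13 days after spraying. Pre-emergence treatment came one day after sowing, post-emergence after 8 days; rate 500 g/h unless otherwise indicated.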

Setaria faberi (SETFA) [2] = test: as above
Outline: as §1

[3] = system: Ipomoea hederacea (IPOHE); test: as above
Outline: as §1

[4] = system: Abutilon theophrasti (ABUTH); test: as above
Outline: as §1

[5] = system: Amaranthus retoflexus (AMARE); test: as above
Outline: as §1

[6] = system: Echinochloa crus-galh (ECHCG); test: Post-emergence herbicidal glasshouse test (Table B1)
Outline: as §1

Setaria faberi (SETFA) [7] = test: as above
Outline: as §1

[8] = system: Ipomoea hederacea (IPOHE); test: as above
Outline: as §1

[9] = system: Abutilon theophrasti (ABUTH); test: as above
Outline: as §1

[10] = system: Amaranthus retoflexus (AMARE); test: as above
Outline: as §1

Compound	PRE Application ECHCG, percentage damage on five-point scale ([1]; applied at 500 g/h)	PRE Application SETFA, percentage damage on five-point scale (Setaria faberi (SETFA) [2]; applied at 500 g/h)	PRE Application IPOHE, percentage damage on five-point scale ([3]; applied)	PRE Application ABUTH, percentage damage on five-point scale ([4]; applied at 500 g/h)	PRE Application AMARE, percentage damage on five-point scale ([5]; applied at 500 g/h)	POST Application ECHCG, percentage damage on five-point scale ([6]; applied at 500 g/h)	POST Application SETFA, percentage damage on five-point scale (Setaria faberi (SETFA) [7]; applied at 500 g/h)	POST Application IPOHE, percentage damage on five-point scale ([8]; applied at 500 g/h)	POST Application ABUTH, percentage damage on five-point scale ([9]; applied at 500 g/h)	POST Application AMARE, percentage damage on five-point scale ([10]; applied at 500 g/h)	PRE Application ECHCG, percentage damage on five-point scale ([1]; applied at 125 g/ha)	PRE Application SETFA, percentage damage on five-point scale (Setaria faberi (SETFA) [2]; applied at 125 g/ha)	PRE Application IPOHE, percentage damage on five-point scale ([3]; applied at 125 g/ha)	PRE Application ABUTH, percentage damage on five-point scale ([4]; applied at 125 g/ha)	PRE Application AMARE, percentage damage on five-point scale ([5]; applied at 125 g/ha)	POST Application ECHCG, percentage damage on five-point scale ([6]; applied at 125 g/ha)	POST Application SETFA, percentage damage on five-point scale (Setaria faberi (SETFA) [7]; applied at 125 g/ha)	POST Application IPOHE, percentage damage on five-point scale ([8]; applied at 125 g/ha)	POST Application ABUTH, percentage damage on five-point scale ([9]; applied at 125 g/ha)	POST Application AMARE, percentage damage on five-point scale ([10]; applied at 125 g/ha)
CC(F)C(=O)Nc1c(OCC(F)(F)F)ccc(C(=O)Nc2nnnn2C)c1Cl (stereo not drawn) [Compound 1.016, 2-chloro-3-(2-fluoropropanoylamino)-N-(1-methyltetrazol-5-yl)-4-(2,2,2-trifluoroethoxy)benzamide]	5 (5=80-100%)	5 (5=80-100%)	5 (5=80-100%)	5 (5=80-100%)	5 (5=80-100%)	5 (5=80-100%)	5 (5=80-100%)	5 (5=80-100%)	5 (5=80-100%)	5 (5=80-100%)	–	–	–	–	–	–	–	–	–	–
Cn1nnnc1NC(=O)c1ccc(OCC(F)(F)F)c(NC(=O)C2CC2)c1Cl [Compound 1.017]	5 (5=80-100%)	5 (5=80-100%)	5 (5=80-100%)	5 (5=80-100%)	5 (5=80-100%)	5 (5=80-100%)	5 (5=80-100%)	5 (5=80-100%)	4 (4=60-79%)	5 (5=80-100%)	–	–	–	–	–	–	–	–	–	–
CC(=O)Nc1c(OCC(F)(F)F)ccc(C(=O)Nc2nnnn2C)c1Cl [Compound 1.018, 3-acetamido-2-chloro-N-(1-methyltetrazol-5-yl)-4-(2,2,2-trifluoroethoxy)benzamide]	3 (3=40-59%)	3 (3=40-59%)	3 (3=40-59%)	4 (4=60-79%)	5 (5=80-100%)	5 (5=80-100%)	5 (5=80-100%)	4 (4=60-79%)	5 (5=80-100%)	5 (5=80-100%)	–	–	–	–	–	–	–	–	–	–
Cn1nnnc1NC(=O)c1ccc(OC(F)F)c(NC(=O)C2CC2)c1Cl [Compound 1.019]	–	–	–	–	–	–	–	–	–	–	5 (5=80-100%)	5 (5=80-100%)	5 (5=80-100%)	5 (5=80-100%)	5 (5=80-100%)	5 (5=80-100%)	5 (5=80-100%)	5 (5=80-100%)	5 (5=80-100%)	5 (5=80-100%)
CC(C)C(=O)Nc1c(OC(F)F)ccc(C(=O)Nc2nnnn2C)c1Cl [Compound 1.020]	–	–	–	–	–	–	–	–	–	–	5 (5=80-100%)	5 (5=80-100%)	5 (5=80-100%)	5 (5=80-100%)	5 (5=80-100%)	5 (5=80-100%)	5 (5=80-100%)	5 (5=80-100%)	5 (5=80-100%)	5 (5=80-100%)
CCC(=O)N(CC)c1c(OC(F)F)ccc(C(=O)Nc2nnnn2C)c1Cl [Compound 1.021]	–	–	–	–	–	–	–	–	–	–	3 (3=40-59%)	3 (3=40-59%)	3 (3=40-59%)	5 (5=80-100%)	3 (3=40-59%)	4 (4=60-79%)	4 (4=60-79%)	3 (3=40-59%)	4 (4=60-79%)	3 (3=40-59%)
